From patent US8119642B2, “Structurally rigid dopamine D3 receptor selective ligands and process for making them” (The United States of America as represented by the …, priority 2002, dated 2012)
Like-named read-outs stand apart in the source and are kept apart here.

Key:
[1] = target: T1, human D2-long dopamine receptor (Homo sapiens, UniProt P14416); assay: Binding in cloned human D2 receptors in HEK cells; conditions: 125I-IABN
T1 construct: expressed in transfected cells
Excerpt: (§1) Human dopamine D2-long (“D2”) and D3 ([…]) receptors were expressed in HEK cells. In brief, stably transfected HEK cells expressing the human D2-long and the D3 dopamine receptor were developed using the pIRES bicistronic expression vector (CLONTECH; Palo Alto, Calif.). […] For comparison, human dopamine D4 (“D4”) receptors were obtained from HEK 293 cells stably transfected with a PCR product o'f a human cDNA coding for the D4.4 form of the human D4 dopamine receptor.

[2] = target: T2, human D3 dopamine receptor (Homo sapiens, UniProt P35462); assay: Binding in cloned human D3 receptors in HEK cells; conditions: for D2/D3: ratio of D2 to D3 binding values
T2 construct: expressed in transfected cells
Excerpt: as §1

[3] = target: T3, D4.4 form of the human D4 dopamine receptor (Homo sapiens, UniProt P21917); assay: Binding in cloned human D4 receptors in HEK cells; conditions: cloned human D4.4 receptors in HEK 293 cells
T3 construct: expressed in transfected cells
T3 sequence (P21917 1-419): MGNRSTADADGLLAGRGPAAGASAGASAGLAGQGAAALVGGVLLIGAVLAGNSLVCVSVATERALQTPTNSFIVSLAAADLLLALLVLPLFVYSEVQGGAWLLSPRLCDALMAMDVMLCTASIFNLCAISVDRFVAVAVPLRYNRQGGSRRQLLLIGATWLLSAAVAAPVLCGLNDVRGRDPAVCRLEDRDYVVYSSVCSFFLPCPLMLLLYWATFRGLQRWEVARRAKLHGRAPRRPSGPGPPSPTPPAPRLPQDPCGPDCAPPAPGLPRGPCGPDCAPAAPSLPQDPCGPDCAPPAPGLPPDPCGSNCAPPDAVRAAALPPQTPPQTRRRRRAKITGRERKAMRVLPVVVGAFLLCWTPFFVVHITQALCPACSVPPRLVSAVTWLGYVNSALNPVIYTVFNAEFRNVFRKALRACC
Experimental: Human dopamine D2-long (“D2”) and D3 ([…]) receptors were expressed in HEK cells. In brief, stably transfected HEK cells expressing the human D2-long and the D3 dopamine receptor were developed using the pIRES bicistronic expression vector (CLONTECH; Palo Alto, Calif.). The level of expression of D2 or D3 receptors was determined to be greater than 2,000 fmoles/mg protein. For comparison, human dopamine D4 (“D4”) receptors were obtained from HEK 293 cells stably transfected with a PCR product o'f a human cDNA coding for the D4.4 form of the human D4 dopamine receptor. The density of binding sites is approximately 1000 fmol/mg protein.
Methods for performing in vitro dopamine receptor binding studies are described in Huang et al. J. Med. Chem. 44:1815-1826 (2001) and Luedtke et al. Synapse 38:438-439 (2000), the contents of which are hereby incorporated by reference. […] Therefore, ^125I-IABN appears to be a high affinity, selective antagonist at D2-like dopamine receptors.

[4] = target: T4, human D4.4 dopamine receptors (Homo sapiens, UniProt P21917); conditions: HEK 293 cells; cited from earlier work
T4 construct: expressed in transfected cells; host or cells: HEK 293 cells
T4 sequence (P21917 1-419): T3 sequence (P21917 1-419)

sigma σ1 binding sites = conditions: cited from earlier work
sigma σ2 binding sites = conditions: cited from earlier work
D1a dopamine receptors = D1a dopamine receptors (Homo sapiens, UniProt P21728); conditions: cited from earlier work
hD3 = target: T5, hD3 (Homo sapiens, UniProt P35462); assay: D3 functional assay, stimulation of mitogenesis in CHO cells (agonist assay); format: cell-based; conditions: for EC50: [3H]thymidine, read-out: Agonist EC50 (nM) ± S.E.M.
T5 construct: expressed in transfected cells; host or cells: CHOp- cells, kept under G418
Experimental: The cells were incubated at 37° C. in α-MEM with 10% FBS, 0.05% penicillin-streptomycin, and 200 μg/mL of G418. After 48 hours, the cells were rinsed twice with serum-free α-MEM and incubated for 24 hours at 37° C. In the functional assay for agonism, the medium was removed and replaced with 90 μl of serum-free α-MEM and 10 μl of test compound in sterile water; in the antagonist assay, the test compound was diluted in sterile water plus 30 nM quinpirole. After another 24-hour incubation at 37° C., 0.25 μCi of [^3H]thymidine was added to each well and the plates were further incubated for 2 hours at 37° C. The cells were then trypsinized, and the plates were filtered and counted as usual in the art. Quinpirole was run on every plate as an internal standard.

[5] = cloned human D3 receptors in HEK cells, 125I-IABN, read-out: D3 binding data

T2 sequence (P35462 whole entry): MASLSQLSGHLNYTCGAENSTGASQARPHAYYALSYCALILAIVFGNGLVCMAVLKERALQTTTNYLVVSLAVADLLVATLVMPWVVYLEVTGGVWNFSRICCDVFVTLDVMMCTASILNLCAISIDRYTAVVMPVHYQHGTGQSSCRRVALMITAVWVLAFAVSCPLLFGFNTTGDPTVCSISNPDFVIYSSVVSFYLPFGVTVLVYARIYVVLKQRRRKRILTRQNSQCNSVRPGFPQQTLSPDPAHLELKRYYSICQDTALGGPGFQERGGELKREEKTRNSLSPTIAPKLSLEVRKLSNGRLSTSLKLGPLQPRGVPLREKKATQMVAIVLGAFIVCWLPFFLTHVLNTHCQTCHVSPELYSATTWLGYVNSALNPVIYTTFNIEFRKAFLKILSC
T5 sequence (P35462 whole entry): as above
T1 sequence (P14416 whole entry): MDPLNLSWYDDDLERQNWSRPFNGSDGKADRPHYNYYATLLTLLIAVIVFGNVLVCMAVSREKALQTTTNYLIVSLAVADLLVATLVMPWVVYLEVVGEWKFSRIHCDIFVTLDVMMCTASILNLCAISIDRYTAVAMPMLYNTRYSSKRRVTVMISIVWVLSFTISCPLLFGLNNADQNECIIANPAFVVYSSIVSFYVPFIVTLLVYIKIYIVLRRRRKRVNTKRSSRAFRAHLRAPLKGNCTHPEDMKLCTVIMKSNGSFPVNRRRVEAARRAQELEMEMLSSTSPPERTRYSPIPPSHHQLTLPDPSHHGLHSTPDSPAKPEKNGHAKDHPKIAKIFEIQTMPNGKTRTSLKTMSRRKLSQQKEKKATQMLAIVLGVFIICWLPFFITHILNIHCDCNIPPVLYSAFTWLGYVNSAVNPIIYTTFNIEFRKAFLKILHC
Sequence of D1a dopamine receptors (P21728 whole entry): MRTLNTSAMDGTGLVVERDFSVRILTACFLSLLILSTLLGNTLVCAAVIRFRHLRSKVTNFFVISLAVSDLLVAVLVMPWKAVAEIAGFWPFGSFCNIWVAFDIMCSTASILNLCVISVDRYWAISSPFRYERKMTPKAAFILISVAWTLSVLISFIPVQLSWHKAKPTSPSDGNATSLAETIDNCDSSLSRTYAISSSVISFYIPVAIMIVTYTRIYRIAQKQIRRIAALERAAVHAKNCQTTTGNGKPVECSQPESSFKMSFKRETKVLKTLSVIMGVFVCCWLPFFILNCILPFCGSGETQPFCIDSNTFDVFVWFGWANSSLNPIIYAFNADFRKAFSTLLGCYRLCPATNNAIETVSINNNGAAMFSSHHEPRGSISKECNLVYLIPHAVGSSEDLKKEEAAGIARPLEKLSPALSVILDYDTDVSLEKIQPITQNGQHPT

O=C(NCC=CCN1CCN(c2cccc(Cl)c2Cl)CC1)c1ccc(I)cc1 [EEC 017, N-{4-[4-(2,3-Dichloro-phenyl)-piperazin-1-yl]-but-2-enyl}-4-iodo-benzamide]
Ki [1]: 35.4 ± 7.6 nM
Ki [2, 5]: 4.2 ± 1.5 nM
D2/D3 [2]: 8

O=C(NC/C=C/CN1CCN(c2cccc(Cl)c2Cl)CC1)c1cccc(I)c1 [EEC 019]
Ki [2, 5]: 3.9 ± 1.2 nM

O=C(NC/C=C/CN1CCN(c2cccc(Cl)c2Cl)CC1)c1ccc([N+](=O)[O-])cc1 [EEC 027]
Ki [2, 5]: 0.6 ± 0.2 nM
Ki [3]: 461 ± 187 nM

O=C(NC/C=C/CN1CCN(c2cccc(Cl)c2Cl)CC1)c1cccc(Cl)c1 [EEC 063]
Ki [2, 5]: 2.1 ± 1.1 nM

COc1ccc(C(=O)NC/C=C/CN2CCN(c3cccc(Cl)c3Cl)CC2)cc1 [EEC 067]
Ki [1]: 34.7 ± 11.4 nM

COc1cccc(C(=O)NC/C=C/CN2CCN(c3cccc(Cl)c3Cl)CC2)c1 [EEC 069]
Ki [1]: 56.9 ± 19.1 nM
Ki [2, 5]: 4 ± 1.6 nM

COc1cc([125I])cc(C(=O)NC2CC3CCCC(C2)N3Cc2ccccc2)c1OC (stereo not drawn) [IABN]
fold lower affinity at human D4.4 than at D2 and D3 receptors [4]: 7- to 10 fold
affinity for sigma σ1 binding sites (sigma σ1 binding sites): low affinity
affinity for sigma σ2 binding sites (sigma σ2 binding sites): low affinity
affinity for D1a dopamine receptors (D1a dopamine receptors): low affinity

O=C(NCC#CCN1CCN(c2cccc(Cl)c2Cl)CC1)c1ccccc1 [JJC 2-062]
Ki [1]: 491 ± 108 nM
Ki [2, 5]: 127 ± 10 nM

O=C(NC/C=C/CN1CCN(c2cccc(Cl)c2Cl)CC1)c1ccccc1 [JJC 2-068]
Ki [2, 5]: 0.6 ± 0.1 nM
EC50 (hD3): > 10000 nM

O=C(NC/C=C/CN1CCN(c2cccc(Cl)c2Cl)CC1)c1ccc2c(c1)Cc1ccccc1-2 [JJC 2-071]
Ki [1]: 186 ± 8 nM
Ki [2, 5]: 3.4 ± 2.9 nM
% Max Stim. ± S.E.M. (hD3): 44.1 ± 0.9%

O=C(NCC#CCN1CCN(c2cccc(Cl)c2Cl)CC1)c1cccc2c1-c1ccccc1C2 [JJC 2-077]
Ki [1]: 592 ± 27 nM
Ki [2, 5]: 318 ± 32 nM

O=C(NCC#CCN1CCN(c2cccc(Cl)c2Cl)CC1)c1ccc2c(c1)Cc1ccccc1-2 [JJC 2-078]
Ki [1]: 1650 ± 692 nM
Ki [2, 5]: 41.5 ± 5.4 nM

O=C(NC/C=C\CN1CCN(c2cccc(Cl)c2Cl)CC1)c1ccccc1 [JJC 2-083]
EC50 (hD3): > 10000 nM

O=C(NC/C=C\CN1CCN(c2cccc(Cl)c2Cl)CC1)c1ccc2c(c1)Cc1ccccc1-2 [JJC 2-085]
Ki [1]: 61.1 ± 19.2 nM
Ki [2, 5]: 3.8 ± 1.4 nM

O=C(NC/C=C/CN1CCN(c2cccc(Cl)c2Cl)CC1)c1ccc(Cl)cc1 [PG01007]
Ki [1]: 25 ± 10.8 nM
Ki [2, 5]: 1.6 ± 1 nM

O=C(NC/C=C/CN1CCN(c2cccc(Cl)c2Cl)CC1)c1ccccc1Cl [PG01009]
Ki [1]: 13.1 ± 5.5 nM

O=C(NC/C=C/CN1CCN(c2cccc(Cl)c2Cl)CC1)c1ccc(F)cc1 [PG01012]
Ki [1]: 8.1 ± 2.7 nM

O=C(NCC=CCN1CCN(c2cccc(Cl)c2Cl)CC1)c1ccc(O)cc1 [PG01015, N-{4-[4-(2,3-Dichloro-phenyl)-piperazin-1-yl]-but-2-enyl}-4-hydroxy-benzamide]
Ki [1]: 13.7 ± 4.8 nM
Ki [2]: 0.4 nM
D2/D3 [2]: 34
Ki [3]: 356 ± 26.5 nM

O=C(NC/C=C/CN1CCN(c2cccc(Cl)c2Cl)CC1)c1ccccc1I [PG01018]
Ki [1]: 12.7 ± 4.1 nM

O=C(NC/C=C/CN1CCN(c2cccc(Cl)c2Cl)CC1)c1cnc2ccccc2n1 [PG01020]
Ki [1]: 70 ± 7.6 nM
Ki [3]: 1110 ± 555 nM

O=C(NC/C=C/CN1CCN(c2cccc(Cl)c2Cl)CC1)c1cccnc1 [PG01022]
Ki [1]: 11.2 ± 5.6 nM

O=C(NC/C=C/CN1CCN(c2cccc(Cl)c2Cl)CC1)c1ccccc1O [PG01025]
Ki [1]: 7.3 ± 3.2 nM

COc1ccccc1C(=O)NC/C=C/CN1CCN(c2cccc(Cl)c2Cl)CC1 [PG01027]
Ki [1]: 5.3 ± 3 nM

O=C(NC/C=C/CN1CCN(c2cccc(Cl)c2Cl)CC1)c1ccccc1[N+](=O)[O-] [PG01029]
Ki [1]: 10.5 ± 4.5 nM

O=C(NC/C=C/CN1CCN(c2cccc(Cl)c2Cl)CC1)c1cc2ccccc2s1 [PG01030]
Ki [2]: 1.3 ± 0.5 nM

O=C(NC/C=C/CN1CCN(c2cccc(Cl)c2Cl)CC1)c1ccccn1 [PG01034]
Ki [1]: 31.2 ± 3.1 nM
Ki [2]: 2 ± 0.6 nM

O=C(NC/C=C/CN1CCN(c2cccc(Cl)c2Cl)CC1)c1ccncc1 [PG01035]
Ki [1]: 17.2 ± 4.2 nM

O=C(NC/C=C/CN1CCN(c2cccc(Cl)c2Cl)CC1)c1ccc(-c2ccccn2)cc1 [PG01037]
Ki [1]: 81.9 ± 20.7 nM
Ki [3]: 505 ± 62.5 nM

Nc1ccccc1C(=O)NC/C=C/CN1CCN(c2cccc(Cl)c2Cl)CC1 [PG01038]
Ki [1]: 25.6 ± 6.8 nM
Ki [2, 5]: 2.7 ± 0.8 nM

O=C(NC/C=C/CN1CCN(c2cccc(Cl)c2Cl)CC1)c1ccc(-c2cccnc2)cc1 [PG01041]
Ki [1]: 63.3 ± 16.5 nM
Ki [3]: 486 ± 157 nM

O=C(NC/C=C/CN1CCN(c2cccc(Cl)c2Cl)CC1)c1cc2ccccc2o1 [PG01055]
Ki [1]: 101 ± 16.9 nM
